According to patent publication US5525626A (priority 1989, dated 1996):

How the values were obtained:
LNCap cells = assay: cell growth in combination with testosterone; type: cell-based, human; conditions: FIG. 9
[1] = system: U 178 MG, TP 410 N, TP 242 MG, TP 336 MG and A 431 cells; conditions: coumarin in the corresponding concentrations
Method: (§1) The neuroblastoma cell line and the three glioblastoma cell lines were cultivated in Ham's F10 medium enriched with 10% fetal calf serum (FCS) and the usual quantity of penicillin, streptomycin (Pen/Strep) and glutamine. The epidermoidal cell line was cultivated in modified Eagle's Medium (MEM), likewise enriched with 10% (FCS) and the usual quantity of glutamine and Pen/Strep.
Untreated cells served as a control. Subsequently, the cells were incubated for 8 hours with ^3 H-thymidine. The radioactivity absorbed by the cells was measured in the usual way.

[2] = system: U 178 MG, TP 410 N, TP 242 MG, TP 336 MG and A 431 cells; assay: growth curves of five tumor cell lines, comparison with coumarin; type: cell-based, human; conditions: corresponding concentrations, up to 12 days
Method: as §1
In each case 5×10^4 cells were plated out in T25 bottles, the untreated cells being incubated in analogous conditions as control. The cell count was microscopically determined after 3, 5, 7, 10 and 12 days.

malignant cell growth = conditions: cited from earlier work
T4 lymphocytes = conditions: low concentrations; cited from earlier work

O=c1oc2ccccc2cc1O [3-OH-1,2-BP, reference compound]
effect on cell growth, comparison compound (LNCap cells): essentially ineffective

O=c1ccc2ccccc2o1 [coumarin, 1,2-Benzopyrone, reference compound]
difference from control in pre-trial [1]: no significant difference could be observed
growth-inhibiting activity (growth curve) versus control [2]: no significant difference could be observed
malignant cell growth (malignant cell growth; cell cultures and animal experiments): inhibits malignant cell growth in cell cultures and in animal experiments
side-effects in mammals (malignant cell growth; compared with biological activity): side-effects in the case of mammals are to be disregarded compared with biological activity

O=P1(N(CCCl)CCCl)NCCCO1 (stereo not drawn) [cyclophosphamide]
biological activity of T4 lymphocytes (T4 lymphocytes): inhibits the biological activity of T4 lymphocytes
